Source: US7015190B1, “Method for enhancing long-term memory in a subject and uses thereof” (The Trustees of Columbia University in the City of New York, priority 1996, dated 2006)
Numbered stars: 1 amine (or outer) side, 2 acyl side, 3 side chain; on linkers, the order of the positions; unused ones are H or OH. Bridge positions count the residues as written; N and C are the ends. Square brackets hold non-standard residues; d marks the D form. Peptide text beside a SMILES is read from it. I, II: the chains in the order shown. Actinocin(9to1) = Cc1c2oc3c(C)ccc(C(=O)[*:1])c3nc-2c(C(=O)[*:2])c(N)c1=O; NMeV = CN[C@H](C(=O)O)C(C)C; Sar = CNCC(=O)O

Assays:
[1] = tested on: CRE-mediated transcription (5xCRE-VIP-lacZ reporter); assay: 5xCRE-VIP-lacZ reporter, transient cotransfection of F9 cells; type: cell-based, mouse
Experimental: (FIG. 5B) Transient transfections of F9 cells using a 5xCRE-VIP-lacZ reporter plasmid. The indicated expression constructs were cotransfected with 5xCRE-VIP-lacZ reporter as in (A), except that relative (-galactosidase activity was calculated relative to 5xCRE-VIP-lacZ reporter and normalized to the luciferase activity of cotransfected pRSV-luc. ApCREB-2 and ApCREB-1 are activators of 5xCRE-VIP-lacZ reporter, but become mutual repressors when coexpressed.
(§1) Undifferentiated mouse F9 cells were transfected using Lipofectamine (BRL). The β-galactosidase and luciferase activities were quantitated by chemiluminescence (Galacton Plus, Tropix, and a Luciferase assay kit, Promega) in a Turner 20e luminometer.

ApCREB-2 mRNA = assay: Steady state level of ApCREB-2 mRNA after exposure to agents; parameters: species or system Aplysia; details: following exposure to the agent
Experimental: RNA was isolated from cultures of approximately 200 Aplysia sensory neurons that had been exposed to none, one, or five pulses of 5-HT (10 μM) as indicated. As a control, one half of the RNA was processed omitting reverse transcriptase from the reaction (—RT).
(FIG. 3B) Northern blot analysis of RNA isolated from CNS of Aplysia exposed to 5-HT in vivo. CNSs were dissected from anesthetized animals after exposing them in vivo to 5-HT (50 μM) for the time indicated above each lane. Eight μg of total RNA from each timepoint was separated in a 1% agarose gel, blotted and consecutively hybridized with probes specific for ApCREB-2, ApCREB-1, ApC/EBP, and ribosomal protein S4 transcripts.
Cultures of approximately 200 Aplysia sensory neurons, established by the dissociation of the pleural sensory cluster in a single dish, were exposed to 10 μM 5-HT for 5 min once or five times separated by 20 min. After washing with ASW, cells were lysed by 100 μl of the guanidium thiocyanate solution and the RNA was isolated. For RT-PCR, the isolated RNA was treated with RNAse free DNAse (Boehringer), reextracted as above and processed using RT-PCR kit (Boehringer). The sequence of the primers used were […]

[2] = tested on: Aplysia sensory-motor neuron cocultures; assay: Short- and long-term synaptic facilitation (EPSP amplitude in motor neuron L7) in sensory-motor neuron cocultures; type: cell-based
Experimental: Aplysia sensory neurons from the pleural ganglia of adult animals (80–100 g) were cocultured with the motor neuron L7 from juvenile animals (0.5–4 g). After 4–5 days in culture, the strength of the synaptic connections between the sensory and motor cell was measured electrophysiologically, as previously described (Montarolo et al. 1986, Alberini et al., 1994). The motor neuron was impaled with a glass microelectrode filled with 2.5M KCl (10 MΩ (resistance) and its membrane potential was held at 30 mV below its resting value. The EPSP was evoked by extracellular stimulation of the sensory neuron and the data were stored on a 4 channel tape recorder.
Two protocols were used to induce synaptic facilitation in Aplysia cocultures. In the first, after testing the initial EPSP amplitude, 10 μM 5-HT was applied for 5 min (single pulse). […] The amount of facilitation was calculated as the percentage change in EPSP amplitude recorded before and at the different time points after the single 5-HT application. In the other group of experiments, long-term facilitation was evoked by five exposures to 10 μM 5-HT for 5 min each, at 20 min intervals (5 pulses). The facilitation was calculated as the percentage change in EPSP amplitude 24 hr after the five pulses of 5-HT. The antisera, adjusted to the osmolarity of Aplysia neurons (Alberini et al., 1994), were pressure injected into the sensory neurons 1 hr before 5-HT treatment. Where indicated, anisomycin (10 μM) or actinomycin D (50 μg/ml) was added to the cocultures 1 hr before the 5-HT pulse and was present continuously during the 5-HT treatment. All data are presented as mean percentage change ±SEM in the EPSP amplitude measured after treatment, as compared with its initial pretreatment amplitude. A one way analysis of variance and Newman Keuls multiple range test were used to determine the significance of the EPSP changes.

ATF4 = assay: Amount of ATF4 during neuronal differentiation of PC12 cells; type: cell-based, rat; details: PC12 cells exposed during differentiation
Excerpt: The above may be tested in a cellular model of neuronal differentiation, specifically the rat pheochromocytoma cells PC12. The cell line is widely used as a model for neuronal differentiation and also for apoptosis, which is programmed neuronal cell death. PC12 cells are undifferentiated in culture and can be differentiated in vitro by exposing them to nerve growth factor (NGF) and cAMP analogs. Withdrawal of these compounds from the cell culture conditions leads to programmed cell death.
It has been investigated whether ATF4 plays a role in the neuronal differentiation of PC12 cells. […] In addition, overexpression of ATF4 in PC12 cells by transfecting expression constructs with constitutive CMV promoter and ATF4 cDNA prevents the PC12 cells from undergoing neuronal differentiation. […] It is important to also study the role of ATF4 in apoptosis. Since both differentiation and cell death in PC12 cell culture involve similar signal transduction pathways, it is reasonable that ATF4 may be involved in this process as well.

[3] = tested on: Aplysia sensory-motor neuron cocultures; assay: Number of fluorescent sensory neuron varicosities contacting the motor neuron; type: cell-based; details: 24 hr after one pulse of 5-HT; antiserum injected 1 hr before training
Experimental: Individual sensory neuron were cocultivated with a single motor cell. Glass micropipettes were filled with a 6% sterile-filtered solution of the fluorescent dye 5(6)-carboxyfluorescein (chromatographically purified; Molecular Probes) in 0.44 M KOH (pH 7.0, resistance 50-90 M. The dye was injected into the sensory neurons immediately after measuring the initial EPSP amplitude by 0.4–0.6 nA hyperpolarizing current pulses (500 ms duration at 1 Hz) for 4–6 min, phase contrast and fluorescence images of the same view areas were taken both before and 24 hr after treatment as previously described (Glanzman et al., 1990; Bailey et al., 1992).
Varicosities were identified according to criteria previously established for sensory neurons in vivo (Bailey et al., 1979; Bailey and Chen, 1983, 1988), and in vitro (Glanzman et al., 1990; Bailey et al., 1992) and included all slightly elongated spheres of approximately 2–3 μm or more in diameter.

UASg-lacZ gene = assay: GAL4 DNA binding domain activation assay in yeast; type: cell-based, S. cerevisiae; details: fused to the GAL4 DNA binding domain, reporter UASg-lacZ
Experimental: The Aplysia CNS cDNA library was synthesized in pGAD10 using random hexamers and the BRL cDNA synthesis kit. Two libraries constructed from size fractionated cDNAs with average inserts >2 kb (5×10^6 independent clones each) were used in the two-hybrid screening as described previously (Fields and Song., 1989, Durfee et al., 1993, Ausubel et al., 1994). The transcriptional activation properties of ApCREB-2 and its interaction with other proteins in the two-hybrid system was analyzed using the full length ApCREB-2 and its deletion mutants subcloned in pAS1 and pACT2 vectors. The transcriptional activity of ApCREB-2/GAL4 DNA binding domain fusions was determined as decribed (Ma and Ptashne, 1987; Durfee et al., 1993). To analyze the protein interactions, ApCREB-2, ApC/EBP, rat CREB, c-fos and deletion mutants of these proteins in pAS1 and pACT2 were cotransformed into S. cerevisiae Y190, and the expressed β-galactosidase quantified as above.

[4] = tested on: CRE-mediated transcription (pGL3-CRE reporter); assay: pGL3-CRE luciferase reporter, transient cotransfection of F9 cells; type: cell-based, mouse
Experimental: (FIG. 5A) Mouse F9 cells were transiently cotransfected with 1 μg of pGL3-CRE reporter plasmid along with 1 μg of each of the indicated expression plasmids: ApCREB-2=pRcRSV-ApCREB-2, ApCREB-1=pRcRSV-ApCREB-1, PKA=pRcRSV-PKA. All transfections were adjusted to 4 μg total DNA with pRcRSV vector DNA.
as §1

[5] = expression plasmid alone, with PKA
[6] = expression plasmid alone, without PKA
[7] = 2 hr after one pulse of 5-HT paired with ApCREB-2 antiserum injection, inhibitor present during 5-HT
[8] = 24 hr after one pulse of 5-HT paired with ApCREB-2 antiserum injection, inhibitor present during 5-HT

rat CREB-1: wild type rat CREB expressed from pRcRSV-CREB341
relative activation [1, 5]: 68.82±7.3
relative activation [1, 6]: 7.65±0.65

Nc1ncnc2c1ncn2[C@@H]1O[C@@H]2CO[P@@](O)(=S)O[C@H]2[C@H]1O [Rp-cAMPS]
level of ApCREB-2 mRNA (ApCREB-2 mRNA): does not change

Cc1c2oc3c(C)ccc(C(=O)N[C@@H]4C(=O)N[C@H](C(C)C)C(=O)N5CCC[C@H]5C(=O)N(C)CC(=O)N(C)[C@@H](C(C)C)C(=O)O[C@@H]4C)c3nc-2c(C(=O)N[C@@H]2C(=O)N[C@H](C(C)C)C(=O)N3CCC[C@H]3C(=O)N(C)CC(=O)N(C)[C@@H](C(C)C)C(=O)O[C@@H]2C)c(N)c1=O [actinomycin D] (I: T[dV]P[Sar][NMeV] / II: T[dV]P[Sar][NMeV]; ester I:1-I:C, II:1-II:C; linker I:N-II:N via Actinocin(9to1))
percent change in EPSP amplitude [2, 7]: +10.12%
percent change in EPSP amplitude [2, 8]: 7.87%

CNc1ccc2oc(C[C@H]3O[C@@]4(CC[C@H]3C)O[C@H]([C@H](C)C(=O)c3ccc[nH]3)[C@H](C)C[C@H]4C)nc2c1C(=O)O [A23187]
level of ApCREB-2 mRNA (ApCREB-2 mRNA): does not change

C=C1[C@@H](O)[C@@H]2O[C@]3(CC[C@H](/C=C/[C@@H](C)[C@@H]4CC(C)=C[C@@]5(O[C@H](C[C@@](C)(O)C(=O)O)CC[C@H]5O)O4)O3)CC[C@H]2O[C@@H]1[C@@H](O)C[C@H](C)[C@H]1O[C@@]2(CCCCO2)CC[C@H]1C [okadaic acid]
level of ApCREB-2 mRNA (ApCREB-2 mRNA): does not change

NGF: nerve growth factor
amount of ATF4 (ATF4): dramatically reduced

CC(C)Cn1c(=O)n(C)c(=O)c2[nH]cnc21 [IBMX]
level of ApCREB-2 mRNA (ApCREB-2 mRNA): does not change

COc1ccc(C[C@H]2NC[C@H](O)[C@H]2OC(C)=O)cc1 [anisomycin]
level of ApCREB-2 mRNA (ApCREB-2 mRNA): does not change
percent change in EPSP amplitude [2, 7]: +19.17%
percent change in EPSP amplitude [2, 8]: +3.67%

Nc1ncnc2c1ncn2[C@@H]1O[C@@H]2COP(O)(=S)O[C@H]2[C@H]1O (some centres unmarked) [Sp-cAMPS]
level of ApCREB-2 mRNA (ApCREB-2 mRNA): does not change

NCCc1c[nH]c2ccc(O)cc12 [5-HT, serotonin]
level of ApCREB-2 mRNA (ApCREB-2 mRNA): not affected
percent change in the number of sensory neuron varicosities [3]: −10%
percent change in EPSP amplitude ([2]; 10 min after one pulse of 5-HT): 13.6%
percent change in EPSP amplitude ([2]; 30 min after one pulse of 5-HT, sera injected 1 hr before): 2.83%
percent change in EPSP amplitude ([2]; 2 hr after one pulse of 5-HT, sera injected 1 hr before): −1%
facilitation of the synaptic potential ([2]; massed training: 25 minutes of continuous exposure to 5-HT): +39%
duration of short-term facilitation ([2]; single pulse of 5-HT, no injection): about 10 min

B1: ApCREB-2: Aplysia bZIP transcription factor, 378 amino acids (SEQ ID NO 1), expressed from pRcRSV-ApCREB-2 (protein)
chain: MELDLWSEDFQLAREWGLEMPVVQTDGQFGDLKSTSRHGGDESLSLQPQGATLKLEPFEEDVLGAEWMESSDLGSFLDALGDNHERLHPFESNLLEFTSLITPDDSTVSKDILSSTLQFPTQPVNIPLYASHGAEDFSAETEFENHLSPPDSPEQVAPVINLEPVELTASHMTVISPDGLLGGMELASESLTFTELDFVNFNDSAVGSIGGAEELLGSPLSVDDVESTISFSGPSSPETSQSSIIESSPELYKVISTSSIDASKRFSPYSRSSKSKQSVKTSDAKAPRKTRTPAQPVPEHVIMEHLDKKDRKKLQNKNAAIRYRMKKKGEAQGIKGEEQELEELNTKLKTKVDDLQREIKYMKNLMEDVCKAKGIQLKM
relative activity as compared to wild type GAL4 (UASg-lacZ gene): 82%
relative activation ([1]; cotransfected with ApCREB-1, absence of PKA): 1.84±0.25
relative activation ([1]; cotransfected with ApCREB-1, presence of PKA): 4.12±0.53
relative activation ([1]; cotransfected with rat CREB-1, with PKA): 5.15±0.62
relative activation ([1]; cotransfected with rat CREB-1, without PKA): 2.27±0.3
relative activation [1, 5]: 43.12±5.1
relative activation [1, 6]: 2.46±0.2
relative activation ([4]; cotransfected with ApCREB-1, absence of PKA catalytic subunit): 0.96±0.15
relative activation ([4]; cotransfected with ApCREB-1, presence of PKA catalytic subunit): 1.64±0.20
